Molecular target: T1, PPARγ (Homo sapiens, UniProt P37231)
T1 construct: gene PPARG; GAL4-PPARγ
T1 sequence (P37231 1-505): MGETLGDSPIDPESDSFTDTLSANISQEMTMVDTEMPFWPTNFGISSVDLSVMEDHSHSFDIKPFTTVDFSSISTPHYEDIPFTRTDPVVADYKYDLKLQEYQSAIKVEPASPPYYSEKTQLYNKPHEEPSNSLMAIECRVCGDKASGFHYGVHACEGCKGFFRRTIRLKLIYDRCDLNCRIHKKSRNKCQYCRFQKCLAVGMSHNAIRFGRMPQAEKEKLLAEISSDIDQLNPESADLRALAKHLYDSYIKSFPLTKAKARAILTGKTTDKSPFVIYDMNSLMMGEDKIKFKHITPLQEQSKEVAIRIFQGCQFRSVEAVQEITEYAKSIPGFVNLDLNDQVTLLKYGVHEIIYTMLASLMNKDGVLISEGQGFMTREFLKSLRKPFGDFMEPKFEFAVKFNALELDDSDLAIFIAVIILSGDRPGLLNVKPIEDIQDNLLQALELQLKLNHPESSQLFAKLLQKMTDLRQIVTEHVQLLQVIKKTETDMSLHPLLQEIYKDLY
Test: GAL4-PPARγ/GAL4-luc luciferase transactivation in transfected HEK-293T cells (reference full agonist)
Assay type: cell-based

`CN(CCOc1ccc(CC2SC(=O)NC2=O)cc1)c1ccccn1` (stereo not shown) [Rosiglitazone] was tested, and the “GAL4-PPARγ/GAL4-luc luciferase transactivation in transfected HEK-293T cells (re)” value was “RGZ activates PPARγ by acting mainly through the canonical binding site”.

From PMC5771072, “Benefits of VCE-003.2, a cannabigerol quinone derivative, against inflammation-driven neuronal deterioration in experimental Parkinson’s disease: possible involvement of different binding sites at the PPARγ receptor” (Journal of Neuroinflammation, 2018)
